What is called LD50 is the dose expected to kill half of the subjects tested.

Structures are written as SMILES. In brackets after ≈: the same amount, converted by molar mass. Where two headings read alike, the source gives them in different places.

The text below walks through data of patent publication US4389412A, “Substituted cyclopropanecarboxylic acid esters and pesticidal compositions containing the same as active ingredient” (priority 1979, dated 1983).

Data set [1] has as its system green rice leafhoppers (Nephotettix cincticeps Uhler). Nature of the data set: Mortality test with green rice leafhoppers by topical application method. As to conditions: Nephotettix cincticeps, in Oryza sativa, 24 h; for LD50: read-out: LD50 (median lethal dose), topical, green rice leafhoppers; for mortality at 10 ng: read-out: Pesticidal effect, green rice leafhopper. On the procedure:
Mortality test with green rice leafhoppers (Nephotettix cincticeps Uhler) by topical application method
Then, the insects were kept at 25° C. with access to rice plant seedlings. The insects were used in groups of 15 individuals each.

For data set [2], the system named is rice stem borers (Chilo suppressalis Walker). Nature of the data set: Mortality test with rice stem borers by topical application method. The format is in vivo. As to conditions: 24 h; for mortality at 0.001 mg: read-out: Pesticidal effect, rice stem borer. The procedure:
Mortality test with rice stem borers (Chilo suppressalis Walker) by topical application method
Using a microsyringe, 0.5 μl of the above solution was applied to the thoracic abdominal region of each final-instar larva of rice stem borer (Chilo suppressalis Walker). […] The test larvae were used in groups of 20 individuals each.

A short description of data set [3]: Fish toxicity test with carp. It is filed as in vivo, Cyprinus carpio L. As to conditions: carp, water. Summed up: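 Compound in acetone with Tween-20 dispersed in 50 L aerated water at a set concentration; five carp (about 6 g, 6 cm) exposed at 21±1° C. Deaths checked after 48 h, and TLm (median tolerance limit, ppm) determined.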
Data set [4] can be described thus: Toxicity test with water-fleas. The note with it: water, 25±1° C., read-out: TLm, Water-flea (6 hrs.). It is filed as in vivo, Daphnia pulex. The procedure:
Toxicity test with water-fleas (Daphnia pulex)
An acetone solution of one of the test compounds as mentioned in Table 10 and Tween-20 (the same surfactant as mentioned hereinbefore) was prepared. To 100 ml of water in a high-walled dish (9 cm in diameter, 7 cm deep) was added the above acetone solution. The mixture was stirred thoroughly to prepare an aqueous solution containing the test compound in a predetermined concentration. This was used as a test water. Twenty water-fleas (Daphnia pulex) were released into each test water which was maintained at 25±1° C. After 6 hours, the water-fleas were examined for deaths. The TLm (median tolerance limit, ppm) was determined.

Data set [5] is described as follows: Fish toxicity safety factor (TLm divided by maximum concentration in cover water). Set-up: species or system carp. The note with it: in vivo, TLm / maximum concentration in cover water at LC50 application (100 l per 10 ares, 5 cm depth). In short, it runs like this: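 Calculated index: carp TLm (ppm) divided by the maximum compound concentration expected in paddy cover water. That concentration assumes 100 l of solution at the pest LC50 applied per 10 ares onto 5 cm deep cover water, all of it entering the water.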

The subject of data set [6] is small brown planthoppers (Laodelphax striatellus Fallen). The data set can be described thus: Utility Example-3: spray on rice plants, small brown planthoppers. As to conditions: 7 ml/pot, 24 hours. The format is in vivo. The procedure:
A 30% emulsifiable concentrate of each of the cis- and trans-isomers and a 50:50 mixture of the cis- and trans-isomers of Compound (1) and of Compound (2) as prepared by the procedure described in Formulation Example-1 was diluted with water to a concentration of 80 ppm as active compound. Rice plants 4 weeks after sowing in pots (each pot 6 cm in diameter, 7 seedlings) were sprayed with the above diluted solution at the rate of 7 ml/pot and, after drying in the air, each pot was covered with a wire-mesh cage. Then, 30 adult small brown planthoppers (Laodelphax striatellus Fallen) were released into the cage. The pots were kept in a constant-temperature chamber at 25° C. […] In all groups, the mortality was not less than 90%.

Data set [7] concerns green rice leafhoppers (Nephotettix cincticeps Uhler). The data set can be described thus: Utility Example-4: 0.2% dust on rice seedlings, green rice leafhoppers. It is filed as in vivo. The note with it: 5 kg per 10 ares, 24 hours, resistant to organophosphorus and carbamate pesticides. An excerpt:
A 0.2% dust preparation of each of the cis- and trans-isomers and a 50:50 mixture of the cis- and trans-isomers of Compound (1) and of Compound (2) as prepared by the procedure described in Formulation Example-3 was applied to rice seedlings by means of a bell-jar duster at the rate of 5 kg per 10 ares. […] In all cases, the mortality was not less than 90%.

The subject of data set [8] is brown planthoppers (Nilaparvata lugens). Nature of the data set: Utility Example-7: 0.5% dust on rice seedlings, brown planthoppers. It is filed as in vivo. The note with it: 1 kg per 10 ares, 24 hours. An excerpt:
A 0.5% dust preparation of each of the cis- and trans-isomers and a 50:50 mixture of the cis- and trans-isomers of Compound (1) and of Compound (2) as prepared by the procedure described in Formulation Example-4 was applied to rice seedlings, on which 30 adult brown planthoppers (Nilaparvata lugens) were released, by means of a bell-jar duster at the rate of 1 kg per 10 ares. […] In all cases, the mortality was not less than 90%.

The subject of data set [9] is houseflies (Musca domestica). Nature of the data set: Mortality test with houseflies by topical application method. The note with it: 24 h; for mortality at 0.001 mg: read-out: Pesticidal effect, housefly.
Experimental: Mortality test with houseflies (Musca domestica) by topical application method
Each of the compounds according to this invention and the control compounds (Table 2) was accurately weighted and a 0.1% solution of each sample in acetone was prepared. Female adult houseflies (Musca domestica) resistant to organophosphorus pesticides, were anesthetized with ether and 0.5 μl or 1.0 μl of the above solution was micropipetted onto the prothoracic dorsal region of each insect. The insects were then put in a high-walled dish together with feed and the dish was covered with a wire-mesh cover and kept at a temperature of 25° C. The test insects were used in groups of 30 individuals each. After 24 hours the insects were examined for deaths and the percent mortality was calculated.
The mark [10] stands for this setting: 48 hrs., 21±1° C., read-out: TLm, Carp (48 hrs.).

Turning to `C#CC(OC(=O)[C@@H]1[C@@H](C=C(Cl)Cl)C1(C)C)c1cccc(Oc2ccc(Cl)cc2)c1` (relative stereo) [Compound (2) trans-], in data set [1], the mortality at 0.01 µg/female turned out to be 100%, the mortality at 0.1 µg/female is 100%, the mortality at 1 µg/female came out at 100% and the median lethal dose (LD50) turned out to be 0.45 mg/kg. In data set [2], this compound gave a mortality at 1 µg/larva of 100% and a mortality at 10 µg/larva of 100%. Also, the LC50 at 48 h in data set [3] (setting [10]) was above 10 µg/mL. Further, in data set [3] (Table 12 and text of Utility Example-1, read-out: Toxicity to fish TLm), the LC50 at 48 h is above 10 µg/mL. The LC50 at 6 h in data set [4] was above 40 µg/mL. Also, the selectivity ratio in data set [5] was above 28. Besides, the mortality at 80 ppm in data set [6] was at least 90%. The mortality entry in [7] is on record as “not less than 90%”. Moreover, the mortality result in data set [8] is on record as “not less than 90%”. Also, in data set [9], the mortality at 0.5 µg/female came to 100% and the mortality at 1 µg/female was 100%.

In the case of `C#CC(OC(=O)[C@@H]1[C@H](C=C(Cl)Cl)C1(C)C)c1cccc(Oc2ccc(Cl)cc2)c1` (relative stereo) [Compound (2) cis-], in data set [1], the mortality at 0.01 µg/female turned out to be 100%, the mortality at 0.1 µg/female came to 100%, the mortality at 1 µg/female came out at 100% and the LD50 was 0.44 mg/kg. Also, in [2], the mortality at 1 µg/larva was 100% and the mortality at 10 µg/larva came out at 100%. Further, in data set [3] (setting [10]), the LC50 at 48 h was found to be 0.83 µg/mL (≈ 1.85 µM). In data set [4], the LC50 at 6 h is above 40 µg/mL. For the same compound, the selectivity ratio in data set [5] is 2.1. This compound had a mortality at 80 ppm in data set [6] of at least 90%. Further, in [7], the mortality result is given as “not less than 90%”. Further, in data set [8], the mortality result was “not less than 90%”. For the same compound, in data set [9], the mortality at 0.5 µg/female amounted to 100% and the mortality at 1 µg/female stood at 100%.

Take `C#CC(OC(=O)C1C(C=C(Cl)Cl)C1(C)C)c1cccc(Oc2ccc(Cl)cc2)c1` (stereo not drawn) [Compound (2) cis-/trans- = 50:50, 3-(4-chlorophenoxy)-α-ethynylbenzyl 2,2-dimethyl-3-(2,2-dichlorovinyl)cyclopropanecarboxylate]: in [1], the mortality at 0.01 µg/female was 100%, the mortality at 0.1 µg/female came to 100%, the mortality at 1 µg/female was 100% and the LD50 was found to be 0.44 mg/kg. Moreover, in data set [1], the mortality at 10 ng worked out at 100%. Also, in [2], the mortality at 1 µg/larva was determined as 100%, the mortality at 10 µg/larva was 100% and the mortality at 0.001 mg is 100%. Also, the LC50 at 6 h in data set [4] was above 40 µg/mL. In addition, the mortality at 80 ppm in data set [6] is at least 90%. Also, in data set [7], the mortality entry was “not less than 90%”. Further, the mortality entry in data set [8] is “not less than 90%”. In data set [9], the mortality at 0.5 µg/female was 100%, the mortality at 1 µg/female worked out at 100% and the mortality at 0.001 mg is 100%.

Consider `CC1(C)[C@@H](C=C(Cl)Cl)[C@@H]1C(=O)OCc1cccc(Oc2ccc(Cl)cc2)c1` (relative stereo) [Compound (1) trans-, 3-(4-chlorophenoxy)benzyl trans-2,2-dimethyl-3-(2,2-dichlorovinyl)cyclopropanecarboxylate], for which, in data set [1], the mortality at 0.01 µg/female is 100%, the mortality at 0.1 µg/female was 100%, the mortality at 1 µg/female worked out at 100% and the LD50 was found to be 0.68 mg/kg. In data set [2], this compound displayed a mortality at 1 µg/larva of 85% and a mortality at 10 µg/larva of 100%. In addition, the LC50 at 48 h in data set [3] (setting [10]) came out at 4.5 µg/mL (≈ 10.6 µM). Further, the LC50 at 6 h in data set [4] was above 40 µg/mL. Further, the selectivity ratio in data set [5] was 3.5. The mortality at 80 ppm in [6] was at least 90%. In addition, the mortality result in data set [7] is “not less than 90%”. Besides, the mortality entry in data set [8] was “not less than 90%”. In [9], this compound returned a mortality at 0.5 µg/female of 100% and a mortality at 1 µg/female of 100%.

Take `CC1(C)C(C=C(Cl)Cl)C1C(=O)OCc1cccc(Oc2ccccc2)c1` (centres unmarked) [Compound (B), Permethrin]: in data set [1], the mortality at 0.01 µg/female was found to be 80%, the mortality at 0.1 µg/female is 100%, the mortality at 1 µg/female was found to be 100% and the LD50 amounted to 1.25 mg/kg. Further, in data set [1], the mortality at 10 ng turned out to be 80%. Besides, in data set [2], the mortality at 1 µg/larva is 95%, the mortality at 10 µg/larva stood at 100% and the mortality at 0.001 mg turned out to be 95%. In [3] (setting [10]), the LC50 at 48 h was determined as 0.015 µg/mL (≈ 0.0383 µM). The selectivity ratio in data set [5] stood at 0.01. Besides, in [9], the mortality at 0.5 µg/female worked out at 100%, the mortality at 1 µg/female turned out to be 100% and the mortality at 0.001 mg came out at 100%.
